Key:
[1] = tested on: immortalized human leiomyoma cell line (HuLM); assay: BRD inhibitor screening by MTT cell proliferation assay, HuLM cells; type: cell-based; conditions: 24 hours and 48 hours
Experimental: (§1) The immortalized human leiomyoma cell line (HuLM) and immortalized human uterine smooth muscle (UTSM) cells were cultured and maintained in phenol red-free, Dulbecco's Modified Eagle Medium: Nutrient Mixture F-12. The cells were grown at 37° C. and 5% CO2 in an incubator with saturating humidity.
(§2) Cell proliferation was measured using a 3-(4,5-dimethylthiazol-2-yl)-2,5-diphenyltetrazolium bromide (MTT) assay. 2×10^4 UTSM or HuLM cells per well were seeded into 12-well tissue culture plates in the absence or presence of each BRD inhibitor from Table 1 for 24 hours or 48 hours. The inhibitors used in this assay were from the Epigenetic Library at the University of Illinois at Chicago. This assay was performed three times in triplicate.

[2] = tested on: immortalized human uterine smooth muscle (UTSM) cells; assay: BRD inhibitor screening by MTT cell proliferation assay, UTSM cells; type: cell-based; conditions: 24 hours and 48 hours
Experimental: as §1, §2

[3] = tested on: HuLM cells; assay: Western immunoblot of HuLM cells after BRD inhibition treatment; type: cell-based, human; conditions: 0-25 μM, 48 hours
Description: Cells were collected and lysed in RIPA lysis buffer with protease and phosphatase inhibitor cocktail (Thermo Scientific, Waltham, MA, USA), and the protein was quantified using the Bradford method (Bio-Rad Protein Assay kit). The antibodies used were: METTL3 (ab195352, Abcam), YTHDC1 (ab122340, Abcam), YTHDC2 (35440, Cell Signaling), YTHDF2 (ab220163, Abcam), BCL-2 (ab182858, Abcam), FN (26836, Cell Signaling), PCNA (GTX100539, Genetex), BRD2 (5848, cell signaling), BRD3 (ab50818, Abcam), BRD9 (58906, Cell Signaling). The antigen-antibody complex was detected with Trident Femto Western HRP substrate (GeneTex, Irvine, CA, USA). Specific protein bands were visualized using ChemiDoc XRS ? molecular imager (Bio-Rad, Hercules, CA, USA).
HuLM cells were cultured in phenol red-free, 10% fetal bovine serum Dulbecco's Modified Eagle Medium: Nutrient Mixture F-12 at 37° C., 5% CO2 in the absence or presence of the BRD inhibitors I-BRD9 and TP-472 for 48 hours respectively. The concentrations of both inhibitors were used in the range of 0-25 μM. Cells were collected after treatment for Western immunoblot as described above.

[4] = tested on: HuLM cells; assay: RNA-sequencing / transcriptome analysis of treated HuLM cells; type: cell-based, human; conditions: 5 μM, 48 hr
Experimental: To determine the mechanism underlying the inhibitory effect of BRD9 inhibition on the UFs, the HuLM cells were treated with BRD9 inhibitor I-BRD9 (5 μM, n=4), TP-472 (5 μM, n=3), and DMSO vehicle control (n=4) for 48 hr. RNA was isolated using Trizol. RNA quality and quantity were assessed using the Agilent bio-analyzer. Strand-specific RNA-SEQ libraries were prepared using a TruSEQ total RNA-SEQ library protocol (Illumina provided). Library quality and quantity were assessed using the Agilent bio-analyzer and libraries were sequenced using an Illumina NovaSEQ6000 (illumine provided reagents and protocols).
A variety of R packages was used for this analysis. All graphics and data wrangling were handled using the tidyverse suite of packages (available from tidyverse.org). All packages used are available from the Comprehensive R Archive Network (CRAN), Bioconductor.org, or GitHub. The reads were mapped to the human reference transcriptome using STAR, version 2.6.1d, as previously described (Dobin et al., Bioinformatics 29 (1):15-21 (2013)). The quality of raw reads, as well as the results of STAR mapping, are generated using fastqc (available from bioinformatics.babraham.ac.uk/projects/fastqc/) and multiqc (available from multiqc.info). Raw reads were mapped to the human reference transcriptome using Salmon, version 1.4.0 (available from combine-lab.github.io/salmon/). After reading mapping with Salmon, Bioconductor (available from bioconductor.org/packages/release/bioc/html/tximport) was used to read Salmon outputs into the R environment. Annotation data from Gencode V34 was used to summarize data from transcript-level to gene-level.

[5] = tested on: UTSM and HuLM cells; assay: Cell proliferation by trypan blue exclusion assay, HuLM versus UTSM cells; type: cell-based, human; conditions: 1-25 μM, 48 hours
Experimental: Cell proliferation was measured using trypan blue exclusion assay. UTSM and HuLM cells (2×10^4 cells per well) were seeded into 12-well tissue culture plates. After 24 hours the cells were cultured in the absence or presence of the BRD inhibitor I-BET762 or (+)-JQ1 at a dose range from 1-25 μM for 48 hours. DMSO was used as a vehicle control. Cells were trypsinized, collected by centrifuge, and resuspended in serum-free medium. Equal volumes of 0.4% trypan blue and cell suspension were mixed and cells were counted using a hemacytometer.

SMILES | UF (HuLM) cell proliferation [1] | myometrial (UTSM) cell proliferation [2] | expression of METTL3 [3] | expression of YTHDC1 [3] | expression of YTHDC2 [3] | fibronectin (FN) levels [3] | levels of PCNA (marker for cell proliferation) [3] | Hallmark analysis: pathway alteration in response to inhibition of BRD [4] | pathways altered (bioinformatic analysis of RNA sequencing) [4] | cellular proliferation, UF cells versus myometrium cells [5] | expression of YTHDF2 [3] | expression of anti-apoptosis protein BCL-2 [3]
CCCS(=O)(=O)c1nc(NC2CC2)cc(-c2ccc3c(ccn3C3CC(C)(C)NC(C)(C)C3)c2)n1 [NVS-CECR2-1] | selectively inhibited UF | not myometrial cell proliferation | – | – | – | – | – | – | – | – | – | –
CC(=O)c1cc(-c2cc(C(=O)NC3CC3)ccc2C)c2ncccn12 [TP-472] | selectively inhibited UF | not myometrial cell proliferation | dose-dependent downregulation | dose-dependent downregulation | dose-dependent downregulation | decreased FN levels | decreasing the levels of PCNA | E2F, MYC Target, G2M checkpoint, and mitotic spindle pathways | altered the pathways related to biological processes, transcriptional factors | – | – | –
Cc1cc(=O)n(C)c2cc(N3C(=O)CC[C@H](NS(=O)(=O)CC(C)C)[C@H]3c3ccc(Cl)cc3)ccc12 [LP99] | selectively inhibited UF | not myometrial cell proliferation | – | – | – | – | – | – | – | – | – | –
Cn1cc(CCn2cnc(-c3cnn(C)c3)c2-c2ccc(C#N)cc2)cn1 [BAZ2-ICR] | selectively inhibited UF | not myometrial cell proliferation | – | – | – | – | – | – | – | – | – | –
CCNC(=O)C[C@@H]1N=C(c2ccc(Cl)cc2)c2cc(OC)ccc2-n2c(C)nnc21 [I-BET762] | – | – | – | – | – | – | – | – | – | reduced cellular proliferation more potently in UF cells than myometrium cells in a dose dependent manner | – | –
CCn1cc(-c2cccc(C(F)(F)F)c2)c2sc(C(=N)NC3CCS(=O)(=O)CC3)cc2c1=O [I-BRD9] | selectively inhibited UF | not myometrial cell proliferation | – | dose-dependent downregulation | dose-dependent downregulation | decreased FN levels | decreasing the levels of PCNA | E2F, MYC Target, G2M checkpoint, and mitotic spindle pathways | altered the pathways related to biological processes, transcriptional factors | – | dose-dependent downregulation | increased the expression of the anti-apoptosis protein BCL-2

Reference: patent US12533360B2, “Inhibition of BRD proteins suppresses the phenotype of uterine fibroids” (The University of Chicago, priority 2021, dated 2026)
